{"source": "the supplement of paper PMC10307832", "experiment_in_all_cases": "relative viability (nuclei count vs DMSO), 5 days (fraction); higher = more cells survive", "key": {"201T": {"tested_on": "201T", "procedure,_shortened": "(§1)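 Lung cancer cell lines were seeded in 1536-well plates and dosed by pin tool the next day, with either a single drug or a fixed anchor-drug dose combined with five library-drug doses (not always all listed) spaced in √10 steps. Five days later, one step fixed the cells and stained their nuclei (final 0.05% Triton X-100, 1% formaldehyde, 1 ug/ml Hoechst), and nuclei were counted on 4× images. Relative viability is the nuclei count in treated wells divided by the count in vehicle wells, and each value is the median of duplicate plates.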"}, "ABC-1": {"tested_on": "ABC-1", "procedure,_shortened": "as §1"}, "BEN": {"tested_on": "BEN", "procedure,_shortened": "as §1"}, "CAL-12T": {"tested_on": "CAL-12T", "procedure,_shortened": "as §1"}, "H3255": {"tested_on": "H3255", "procedure,_shortened": "as §1"}, "HARA": {"tested_on": "HARA", "procedure,_shortened": "as §1"}, "HCC-15": {"tested_on": "HCC-15", "procedure,_shortened": "as §1"}, "HCC-827": {"tested_on": "HCC-827", "procedure,_shortened": "as §1"}, "LC-2-ad": {"tested_on": "LC-2-ad", "procedure,_shortened": "as §1"}, "LCLC-103H": {"tested_on": "LCLC-103H", "procedure,_shortened": "as §1"}, "LOU-NH91": {"tested_on": "LOU-NH91", "procedure,_shortened": "as §1"}, "LU99A": {"tested_on": "LU99A", "procedure,_shortened": "as §1"}, "NCI-H1355": {"tested_on": "NCI-H1355", "procedure,_shortened": "as §1"}, "NCI-H1666": {"tested_on": "NCI-H1666", "procedure,_shortened": "as §1"}, "NCI-H1755": {"tested_on": "NCI-H1755", "procedure,_shortened": "as §1"}, "NCI-H1993": {"tested_on": "NCI-H1993", "procedure,_shortened": "as §1"}, "NCI-H2085": {"tested_on": "NCI-H2085", "procedure,_shortened": "as §1"}, "NCI-H2170": {"tested_on": "NCI-H2170", "procedure,_shortened": "as §1"}, "NCI-H2228": {"tested_on": "NCI-H2228", "procedure,_shortened": "as §1"}, "NCI-H2342": {"tested_on": "NCI-H2342", "procedure,_shortened": "as §1"}, "NCI-H23": {"tested_on": "NCI-H23", "procedure,_shortened": "as §1"}, "NCI-H727": {"tested_on": "NCI-H727", "procedure,_shortened": "as §1"}, "PC-3 [JPC-3]": {"tested_on": "PC-3 [JPC-3]", "procedure,_shortened": "as §1"}, "RERF-LC-KJ": {"tested_on": "RERF-LC-KJ", "procedure,_shortened": "as §1"}, "SK-LU-1": {"tested_on": "SK-LU-1", "procedure,_shortened": "as §1"}}, "data": [{"smiles": "Nc1cccc2c1CN(C1CCC(=O)NC1=O)C2=O", "note": "(centres undefined) [Lenalidomide] + CCNC(=O)c1noc(-c2cc(C(C)C)c(O)cc2O)c1-c1ccc(CN2CCOCC2)cc1 [Luminespib] (partner 0.01 µM)", "values": [{"measurement": "relative viability", "setting": "201T; first compound 0.253 µM", "value": 1.05}, {"measurement": "relative viability", "setting": "201T; first compound 2.53 µM", "value": 1.03}, {"measurement": "relative viability", "setting": "201T; first compound 8 µM", "value": 1.09}, {"measurement": "relative viability", "setting": "ABC-1; first compound 0.253 µM", "value": 0.908}, {"measurement": "relative viability", "setting": "ABC-1; first compound 2.53 µM", "value": 0.684}, {"measurement": "relative viability", "setting": "ABC-1; first compound 8 µM", "value": 0.517}, {"measurement": "relative viability", "setting": "BEN; first compound 0.253 µM", "value": 0.427}, {"measurement": "relative viability", "setting": "BEN; first compound 0.8 µM", "value": 0.233}, {"measurement": "relative viability", "setting": "BEN; first compound 2.53 µM", "value": 0.607}, {"measurement": "relative viability", "setting": "BEN; first compound 8 µM", "value": 0.246}, {"measurement": "relative viability", "setting": "CAL-12T; first compound 0.253 µM", "value": 0.341}, {"measurement": "relative viability", "setting": "CAL-12T; first compound 0.8 µM", "value": 0.245}, {"measurement": "relative viability", "setting": "CAL-12T; first compound 2.53 µM", "value": 0.259}, {"measurement": "relative viability", "setting": "CAL-12T; first compound 8 µM", "value": 0.479}, {"measurement": "relative viability", "setting": "H3255; first compound 0.253 µM", "value": 0.732}, {"measurement": "relative viability", "setting": "H3255; first compound 0.8 µM", "value": 0.753}, {"measurement": "relative viability", "setting": "H3255; first compound 2.53 µM", "value": 0.915}, {"measurement": "relative viability", "setting": "H3255; first compound 8 µM", "value": 0.876}, {"measurement": "relative viability", "setting": "HARA; first compound 0.253 µM", "value": 0.679}, {"measurement": "relative viability", "setting": "HARA; first compound 2.53 µM", "value": 0.614}, {"measurement": "relative viability", "setting": "HARA; first compound 8 µM", "value": 1.03}, {"measurement": "relative viability", "setting": "HCC-15; first compound 0.253 µM", "value": 0.485}, {"measurement": "relative viability", "setting": "HCC-15; first compound 0.8 µM", "value": 0.303}, {"measurement": "relative viability", "setting": "HCC-15; first compound 2.53 µM", "value": 0.359}, {"measurement": "relative viability", "setting": "HCC-15; first compound 8 µM", "value": 0.363}, {"measurement": "relative viability", "setting": "HCC-827; first compound 0.253 µM", "value": 0.661}, {"measurement": "relative viability", "setting": "HCC-827; first compound 0.8 µM", "value": 0.803}, {"measurement": "relative viability", "setting": "HCC-827; first compound 2.53 µM", "value": 0.838}, {"measurement": "relative viability", "setting": "HCC-827; first compound 8 µM", "value": 0.59}, {"measurement": "relative viability", "setting": "LC-2-ad; first compound 0.253 µM", "value": 0.912}, {"measurement": "relative viability", "setting": "LC-2-ad; first compound 2.53 µM", "value": 1.03}, {"measurement": "relative viability", "setting": "LC-2-ad; first compound 8 µM", "value": 1.18}, {"measurement": "relative viability", "setting": "LCLC-103H; first compound 0.253 µM", "value": 1.02}, {"measurement": "relative viability", "setting": "LCLC-103H; first compound 0.8 µM", "value": 0.958}, {"measurement": "relative viability", "setting": "LCLC-103H; first compound 2.53 µM", "value": 1.17}, {"measurement": "relative viability", "setting": "LCLC-103H; first compound 8 µM", "value": 0.922}, {"measurement": "relative viability", "setting": "LOU-NH91; first compound 0.253 µM", "value": 0.343}, {"measurement": "relative viability", "setting": "LOU-NH91; first compound 0.8 µM", "value": 0.343}, {"measurement": "relative viability", "setting": "LOU-NH91; first compound 2.53 µM", "value": 0.313}, {"measurement": "relative viability", "setting": "LOU-NH91; first compound 8 µM", "value": 0.283}, {"measurement": "relative viability", "setting": "LU99A; first compound 0.253 µM", "value": 0.236}, {"measurement": "relative viability", "setting": "LU99A; first compound 0.8 µM", "value": 0.249}, {"measurement": "relative viability", "setting": "LU99A; first compound 2.53 µM", "value": 0.258}, {"measurement": "relative viability", "setting": "LU99A; first compound 8 µM", "value": 0.258}, {"measurement": "relative viability", "setting": "NCI-H1355; first compound 0.253 µM", "value": 0.651}, {"measurement": "relative viability", "setting": "NCI-H1355; first compound 2.53 µM", "value": 0.812}, {"measurement": "relative viability", "setting": "NCI-H1355; first compound 8 µM", "value": 0.558}, {"measurement": "relative viability", "setting": "NCI-H1666; first compound 0.253 µM", "value": 0.977}, {"measurement": "relative viability", "setting": "NCI-H1666; first compound 2.53 µM", "value": 1.02}, {"measurement": "relative viability", "setting": "NCI-H1666; first compound 8 µM", "value": 1.04}, {"measurement": "relative viability", "setting": "NCI-H1755; first compound 0.253 µM", "value": 0.422}, {"measurement": "relative viability", "setting": "NCI-H1755; first compound 0.8 µM", "value": 0.42}, {"measurement": "relative viability", "setting": "NCI-H1755; first compound 2.53 µM", "value": 0.596}, {"measurement": "relative viability", "setting": "NCI-H1755; first compound 8 µM", "value": 0.655}, {"measurement": "relative viability", "setting": "NCI-H1993; first compound 0.253 µM", "value": 0.66}, {"measurement": "relative viability", "setting": "NCI-H1993; first compound 0.8 µM", "value": 0.726}, {"measurement": "relative viability", "setting": "NCI-H1993; first compound 2.53 µM", "value": 0.767}, {"measurement": "relative viability", "setting": "NCI-H1993; first compound 8 µM", "value": 0.743}, {"measurement": "relative viability", "setting": "NCI-H2085; first compound 0.253 µM", "value": 0.487}, {"measurement": "relative viability", "setting": "NCI-H2085; first compound 0.8 µM", "value": 0.487}, {"measurement": "relative viability", "setting": "NCI-H2085; first compound 2.53 µM", "value": 0.367}, {"measurement": "relative viability", "setting": "NCI-H2085; first compound 8 µM", "value": 0.437}, {"measurement": "relative viability", "setting": "NCI-H2170; first compound 0.253 µM", "value": 0.683}, {"measurement": "relative viability", "setting": "NCI-H2170; first compound 0.8 µM", "value": 0.799}, {"measurement": "relative viability", "setting": "NCI-H2170; first compound 2.53 µM", "value": 0.588}, {"measurement": "relative viability", "setting": "NCI-H2170; first compound 8 µM", "value": 0.426}, {"measurement": "relative viability", "setting": "NCI-H2228; first compound 0.253 µM", "value": 0.156}, {"measurement": "relative viability", "setting": "NCI-H2228; first compound 0.8 µM", "value": 0.103}, {"measurement": "relative viability", "setting": "NCI-H2228; first compound 2.53 µM", "value": 0.115}, {"measurement": "relative viability", "setting": "NCI-H2228; first compound 8 µM", "value": 0.189}, {"measurement": "relative viability", "setting": "NCI-H2342; first compound 0.253 µM", "value": 0.706}, {"measurement": "relative viability", "setting": "NCI-H2342; first compound 0.8 µM", "value": 0.744}, {"measurement": "relative viability", "setting": "NCI-H2342; first compound 2.53 µM", "value": 0.806}, {"measurement": "relative viability", "setting": "NCI-H2342; first compound 8 µM", "value": 0.56}, {"measurement": "relative viability", "setting": "NCI-H23; first compound 0.253 µM", "value": 0.218}, {"measurement": "relative viability", "setting": "NCI-H23; first compound 0.8 µM", "value": 0.173}, {"measurement": "relative viability", "setting": "NCI-H23; first compound 2.53 µM", "value": 0.196}, {"measurement": "relative viability", "setting": "NCI-H23; first compound 8 µM", "value": 0.228}, {"measurement": "relative viability", "setting": "NCI-H727; first compound 0.253 µM", "value": 0.45}, {"measurement": "relative viability", "setting": "NCI-H727; first compound 0.8 µM", "value": 0.316}, {"measurement": "relative viability", "setting": "NCI-H727; first compound 2.53 µM", "value": 0.473}, {"measurement": "relative viability", "setting": "NCI-H727; first compound 8 µM", "value": 0.477}, {"measurement": "relative viability", "setting": "PC-3 [JPC-3]; first compound 0.253 µM", "value": 0.651}, {"measurement": "relative viability", "setting": "PC-3 [JPC-3]; first compound 0.8 µM", "value": 0.729}, {"measurement": "relative viability", "setting": "PC-3 [JPC-3]; first compound 2.53 µM", "value": 0.616}, {"measurement": "relative viability", "setting": "PC-3 [JPC-3]; first compound 8 µM", "value": 0.572}, {"measurement": "relative viability", "setting": "RERF-LC-KJ; first compound 0.253 µM", "value": 1.28}, {"measurement": "relative viability", "setting": "RERF-LC-KJ; first compound 0.8 µM", "value": 1.29}, {"measurement": "relative viability", "setting": "RERF-LC-KJ; first compound 2.53 µM", "value": 1.12}, {"measurement": "relative viability", "setting": "RERF-LC-KJ; first compound 8 µM", "value": 1.32}, {"measurement": "relative viability", "setting": "SK-LU-1; first compound 0.253 µM", "value": 0.177}, {"measurement": "relative viability", "setting": "SK-LU-1; first compound 0.8 µM", "value": 0.218}, {"measurement": "relative viability", "setting": "SK-LU-1; first compound 2.53 µM", "value": 0.198}, {"measurement": "relative viability", "setting": "SK-LU-1; first compound 8 µM", "value": 0.226}]}]}
